Assay results: patent US7560470B2, “Heterocyclyl-3-sulfonylindazoles as 5-hydroxytryptamine-6 ligands” (Wyeth, priority 2003, dated 2009)
Counter-ions that a name gives are not always drawn. Like-named read-outs stand apart in the source and are kept apart here.

Tests used:
[1] = molecular target: T1, human cloned 5-HT6 receptors (Homo sapiens, UniProt P50406); assay: 5-HT6 binding affinity, [3H]-LSD displacement on membranes of Hela cells expressing human cloned 5-HT6 receptors; conditions: for Ki: [3H]-LSD 3.0 nM, Hela cell membranes, 120 min at room temperature; for inhibition at 1 µM: test compound at 1 μM, displacement of [3H]-LSD
T1 construct: expressed in transfected cells; host or cells: HeLa cells (membrane preparation)
Method: The affinity of test compounds for the serotonin 5-HT6 receptor is evaluated in the following manner. Cultured Hela cells expressing human cloned 5-HT6 receptors are harvested and centrifuged at low speed (1,000×g) for 10.0 min to remove the culture media. The harvested cells are suspended in half volume of fresh physiological phosphate buffered saline solution and recentrifuged at the same speed. This operation is repeated. The collected cells are then homogenized in ten volumes of 50 mM Tris.HCl (pH 7.4) and 0.5 mM EDTA. The homogenate is centrifuged at 40,000×g for 30.0 min and the precipitate is collected. The obtained pellet is resuspended in 10 volumes of Tris.HCl buffer and recentrifuged at the same speed. The final pellet is suspended in a small volume of Tris.HCl buffer and the tissue protein content is determined in aliquots of 10-25 μl volumes. Bovine Serum Albumin is used as the standard in the protein determination according to the method described in Lowry et al., J. Biol. Chem., 193:265 (1951). The volume of the suspended cell membranes is adjusted to give a tissue protein concentration of 1.0 mg/ml of suspension. The prepared membrane suspension (10 times concentrated) is aliquoted in 1.0 ml volumes and stored at −70° C. until used in subsequent binding experiments.
Binding experiments are performed in a 96 well microtiter plate format, in a total volume of 200 μl. […] The test compounds are added in 20.0 μl volume.
The reaction is allowed to proceed in the dark for 120 min at room temperature, at which time, the bound ligand-receptor complex is filtered off on a 96 well unifilter with a Packard Filtermate® 196 Harvester. The bound complex caught on the filter disk is allowed to air dry and the radioactivity is measured in a Packard TopCount® equipped with six photomultiplier detectors, after the addition of 40.0 μl Microscint®−20 scintillant to each shallow well. The unifilter plate is heat-sealed and counted in a PackardTopCount® with a tritium efficiency of 31.0%.
Binding in the presence of varying concentrations of test compound is expressed as a percentage of specific binding in the absence of test compound. The results are plotted as log % bound versus log concentration of test compound. Nonlinear regression analysis of data points with a computer assisted program Prisms® yields both the IC50 and the Ki values of test compounds with 95% confidence limits.
The amount of displacement by the test compound is given in percent (%) inhibition and is derived from the following equation:
[formula] where B0 is the amount of CPM bound in the presence of the testing agent. NSB represents the CPM bound in the presence of a saturating concentration of a displacer and TB represents the total amount of CPM bound at zero (0) concentration of test compound.
Alternatively, a linear regression line of data points is plotted, from which the IC50 value is determined and the Ki value is determined based upon the following equation: Ki=IC50/(1+L/KD) where L is the concentration of the radioactive ligand used and KD is the dissociation constant of the ligand for the receptor, both expressed in nM.

T1 sequence (P50406 whole entry): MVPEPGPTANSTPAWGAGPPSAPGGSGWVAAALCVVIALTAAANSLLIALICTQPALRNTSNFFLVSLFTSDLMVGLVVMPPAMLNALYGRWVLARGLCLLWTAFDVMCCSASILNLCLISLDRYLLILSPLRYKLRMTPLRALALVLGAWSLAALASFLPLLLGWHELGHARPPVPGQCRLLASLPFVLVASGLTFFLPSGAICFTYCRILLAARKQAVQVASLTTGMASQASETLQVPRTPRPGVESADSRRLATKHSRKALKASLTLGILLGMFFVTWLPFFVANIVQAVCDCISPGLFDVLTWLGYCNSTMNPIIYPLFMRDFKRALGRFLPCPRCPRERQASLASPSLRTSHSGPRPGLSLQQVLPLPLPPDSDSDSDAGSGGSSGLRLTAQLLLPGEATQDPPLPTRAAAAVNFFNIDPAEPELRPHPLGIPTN

Structure (SMILES)	Ki ([1]; read-out: 5-HT6 Binding Ki)	also measured
CN1CCN(c2ccc3[nH]nc(S(=O)(=O)c4cccc5ccccc45)c3c2)CC1 [Example 14]	1 nM	–
O=S(=O)(c1ccccc1)c1nn(-c2ccc(F)c(Cl)c2)c2ccc(N3CCNCC3)cc12 [Example 38]	73 nM	melting point: > 200 °C
O=S(=O)(c1cccc2ccccc12)c1n[nH]c2ccc(N3CCNCC3)cc12 [Example 53]	1 nM	–
O=S(=O)(c1cccc(F)c1)c1n[nH]c2ccc(N3CCN(Cc4ccccc4)CC3)cc12 [Example 5, 5-(4-Benzylpiperazin-1-yl)-3-[(3-fluorophenyl)sulfonyl]-1H-indazole hydrochloride]	–	inhibition at 1 µM [1]: 53%
CC(C)c1ccc(S(=O)(=O)c2n[nH]c3ccc(N4CCN(C)CC4)cc23)cc1 [Example 71]	4 nM	–
CN1CCN(c2ccc3[nH]nc(S(=O)(=O)c4ccc(Cl)cc4)c3c2)CC1 [Example 67]	8 nM	–
CN1CCN(c2ccc3[nH]nc(S(=O)(=O)c4ccccc4Br)c3c2)CC1 [Example 89]	10 nM	–
COc1ccc(Cl)cc1S(=O)(=O)c1n[nH]c2ccc(N3CCN(C)CC3)cc12 [Example 77]	2 nM	–
O=S(=O)(c1ccccc1)c1nn(-c2ccc(F)cc2)c2ccc(N3CCNCC3)cc12 [Example 37]	4 nM	melting point: 159 to 161 °C
CN1CCN(c2ccc3[nH]nc(S(=O)(=O)c4ccccc4F)c3c2)CC1 [Example 18]	6 nM	melting point: 160 to 161 °C
CC(C)c1ccc(S(=O)(=O)c2n[nH]c3c(N4CCN(C)CC4)cc(Cl)cc23)cc1 [Example 98]	22 nM	–
CN1CCN(c2ccc3c(c2)c(S(=O)(=O)c2cccc4ccccc24)nn3Cc2ccccc2)CC1 [Example 52]	2 nM	–
O=S(=O)(c1ccccc1)c1nn(CCc2ccccc2)c2ccc(N3CCNCC3)cc12 [Example 31]	3 nM	melting point: 127 to 130 °C
CN1CCN(c2cc(Cl)cc3c(S(=O)(=O)c4cccc(C(F)(F)F)c4)n[nH]c23)CC1 [Example 99]	20 nM	–
CCCCn1nc(S(=O)(=O)c2cccc3ccccc23)c2cc(N3CCN(C)CC3)ccc21 [Example 48]	–	Ki ([1]; 5-HT6 Binding Ki): 4 nM
CC(C)n1nc(S(=O)(=O)c2cccc3ccccc23)c2cc(N3CCN(C)CC3)ccc21 [Example 50]	2 nM	–
CN1CCN(c2ccc3[nH]nc(S(=O)(=O)c4ccc(F)cc4)c3c2)CC1 [Example 60]	5 nM	–
CN1CCN(c2ccc3c(c2)c(S(=O)(=O)c2cccc4ccccc24)nn3C)CC1 [Example 47]	2 nM	–
COc1cc2[nH]nc(S(=O)(=O)c3ccccc3)c2cc1N1CCN(Cc2ccccc2)CC1 [Example 7, 5-(4-Benzylpiperazin-1-yl)-6-methoxy-3-(phenylsulfonyl)-1H-indazole hydrochloride]	113 nM	–
CN1CCN(c2ccc3[nH]nc(S(=O)(=O)c4ccc(Cl)s4)c3c2)CC1 [Example 70]	3 nM	–
CC(C)Cn1nc(S(=O)(=O)c2cccc3ccccc23)c2cc(N3CCN(C)CC3)ccc21 [Example 51]	1 nM	–
O=S(=O)(c1ccccc1)c1nn(-c2ccc(C(F)(F)F)cc2)c2ccc(N3CCNCC3)cc12 [Example 33]	19 nM	melting point: 170 to 172 °C
CN1CCN(c2ccc3[nH]nc(S(=O)(=O)c4cccc(F)c4)c3c2)CC1 [Example 19]	2 nM	melting point: > 250 °C
CN1CCN(c2ccc3[nH]nc(S(=O)(=O)c4ccc(S(C)(=O)=O)cc4)c3c2)CC1 [Example 80]	62 nM	–
O=S(=O)(c1ccccc1)c1nn(-c2cccc(C(F)(F)F)c2)c2ccc(N3CCN(Cc4ccccc4)CC3)cc12 [Example 28]	136 nM	melting point: 146 to 150 °C
CCn1nc(S(=O)(=O)c2ccccc2)c2cc(N3CCN(Cc4ccccc4)CC3)ccc21 [Example 12, 5-(4-Benzylpiperazin-1-yl)-1-ethyl-3-(phenylsulfonyl)-1H-indazole dihydrochloride]	64 nM	–

Structure (SMILES)	Ki ([1]; read-out: 5-HT6 Binding Ki)	also measured
COc1ccc(S(=O)(=O)c2n[nH]c3ccc(N4CCN(C)CC4)cc23)cc1 [Example 64]	12 nM	–
COc1cccc(-n2nc(S(=O)(=O)c3ccccc3)c3cc(N4CCNCC4)ccc32)c1 [Example 36]	20 nM	melting point: 132 to 135 °C
CN1CCN(c2ccc3[nH]nc(S(=O)(=O)c4c(Cl)cccc4Cl)c3c2)CC1 [Example 91]	6 nM	–
CN1CCN(c2ccc3[nH]nc(S(=O)(=O)c4ccccc4F)c3c2)CC1 [Example 58]	3 nM	–
CN1CCN(c2ccc3[nH]nc(S(=O)(=O)c4ccc(F)cc4F)c3c2)CC1 [Example 68]	14 nM	–
Cn1nc(S(=O)(=O)c2ccccc2)c2cc(N3CCN(Cc4ccccc4)CC3)ccc21 [Example 11, 5-(4-Benzylpiperazin-1-yl)-1-methyl-3-(phenylsulfonyl)-1H-indazole]	–	inhibition at 1 µM [1]: 67%
CN1CCN(c2ccc3[nH]nc(S(=O)(=O)c4ccccc4Cl)c3c2)CC1 [Example 65]	4 nM	–
CN1CCN(c2ccc3[nH]nc(S(=O)(=O)c4ccc(Cl)s4)c3c2)CC1 [Example 15]	2 nM	melting point: > 250 °C
O=S(=O)(c1ccccc1)c1nn(-c2cccc(C(F)(F)F)c2)c2ccc(N3CCNCC3)cc12 [Example 40]	62 nM	melting point: 139 to 142 °C
O=S(=O)(c1ccccc1)c1n[nH]c2ccc(N3CCN(Cc4ccccc4)CC3)cc12 [Example 4, 5-(4-Benzylpiperazin-1-yl)-3-(phenylsulfonyl)-1H-indazole hydrochloride]	86 nM	–
O=S(=O)(c1ccccc1)c1nn(-c2ccc(I)cc2)c2ccc(N3CCNCC3)cc12 [Example 42]	117 nM	melting point: > 200 °C
CN1CCN(c2ccc3[nH]nc(S(=O)(=O)c4ccc5ccccc5c4)c3c2)CC1 [Example 72]	2 nM	–
Cc1ccc(S(=O)(=O)c2n[nH]c3ccc(N4CCN(C)CC4)cc23)cc1 [Example 56]	5 nM	–
CCn1nc(S(=O)(=O)c2ccccc2)c2cc(N3CCNCC3)ccc21 [Example 43]	3 nM	melting point: > 200 °C
CCCn1nc(S(=O)(=O)c2cccc3ccccc23)c2cc(N3CCN(C)CC3)ccc21 [Example 45]	2 nM	–
COc1cc2c(cc1N1CCN(Cc3ccccc3)CC1)c(S(=O)(=O)c1ccccc1)nn2-c1ccccc1 [Example 8, 5-(4-Benzylpiperazin-1-yl)-6-methoxy-1-phenyl-3-(phenylsulfonyl)-1H-indazole hydrochloride]	399 nM	–
CN1CCN(c2ccc3c(c2)c(S(=O)(=O)c2cccc4ccccc24)nn3Cc2cccc(Cl)c2)CC1 [Example 49]	6 nM	–
COc1cccc(S(=O)(=O)c2n[nH]c3ccc(N4CCN(C)CC4)cc23)c1 [Example 63]	1 nM	–
COc1cc2c(cc1N1CCNCC1)c(S(=O)(=O)c1ccccc1)nn2-c1ccc(C(F)(F)F)cc1 [Example 10, 6-Methoxy-3-(phenylsulfonyl)-5-(piperazin-1-yl)-1-[4-(trifluoromethyl)phenyl]-1H-indazole hydrochloride]	224 nM	–
CCCCc1ccc(S(=O)(=O)c2n[nH]c3ccc(N4CCN(C)CC4)cc23)cc1 [Example 74]	26 nM	–
CN1CCN(c2ccc3[nH]nc(S(=O)(=O)c4cccs4)c3c2)CC1 [Example 54]	–	Ki ([1]; 5-HT6 Binding Ki): 8 nM
CN1CCN(c2cc(Cl)cc3c(S(=O)(=O)c4cccc5ccccc45)n[nH]c23)CC1 [Example 100]	5 nM	–
COc1cc2c(cc1N1CCNCC1)c(S(=O)(=O)c1ccccc1)nn2-c1ccccc1 [Example 9, 6-Methoxy-1-phenyl 3-(phenylsulfonyl)-5-piperazin-1-yl-1H-indazole hydrochloride]	97 nM	–
CN1CCN(c2cc(Cl)cc3c(S(=O)(=O)c4ccc(F)cc4)n[nH]c23)CC1 [Example 97, 5-Chloro-3[(4-fluorophenyl)sulfonyl]-7-(4-methylpiperazin-1-yl)-1H-indazole]	12 nM	–
CN1CCN(c2cccc3c(S(=O)(=O)c4cccc5ccccc45)n[nH]c23)CC1 [Example 101]	5 nM	–
